Measured values reported in ChEMBL document CHEMBL1201862, “PubChem BioAssay data set” (2004).
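Results reflect a 48-hour exposure of cells in 96-well plates to compound at five concentrations. The concentration for 50% growth inhibition is given as GI50.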 Active and inactive are the calls of the source. Rule as the data show it: active = GI50 up to about 1.1 µM and inactive = higher.

Experiments:
Test in all cases: NCI anticancer screen, dose series, 48 h
[1] = tested on: M14
[2] = tested on: IGROV-1
[3] = tested on: HOP-62
[4] = tested on: ACHN
[5] = tested on: TK-10
[6] = tested on: SK-MEL-2
[7] = tested on: HL-60
[8] = tested on: MDA-N
[9] = tested on: A498
[10] = tested on: SF-539
[11] = tested on: CAKI-1
[12] = tested on: HCC 2998
[13] = tested on: OVCAR-3
[14] = tested on: 786-0
[15] = tested on: HT-29
[16] = tested on: HCT-116
[17] = tested on: NCI-H460
[18] = tested on: K562
[19] = tested on: SNB-75

Structure (SMILES) | GI50 [1] | GI50 [2] | GI50 [3] | GI50 [4] | GI50 [5] | GI50 [6] | GI50 [7] | GI50 [8] | GI50 [9] | GI50 [10] | GI50 [11] | GI50 [12] | GI50 [13] | GI50 [14] | GI50 [15] | GI50 [16] | GI50 [17] | GI50 [18] | GI50 [19]
COc1ccc2cc1Oc1ccc(cc1)CC1c3c(cc(OC)c4c3Oc3cc5c(cc3O4)CCNC5C2)CCN1C (centres undefined) | 2.58 µM (inactive) | 1.87 µM (inactive) | 2.2 µM (inactive) | 1.88 µM (inactive) | 1.86 µM (inactive) | 1.84 µM (inactive) | 1.84 µM (inactive) | 1.83 µM (inactive) | 2.1 µM (inactive) | 1.7 µM (inactive) | 2.87 µM (inactive) | 1.2 µM (inactive) | 2.69 µM (inactive) |  |  |  |  |  | 
O=C1CC(c2cccc(Cl)c2)Nc2ccc(N3CCCC3)cc21 (centres undefined) | 0.028 µM (active) | 0.13 µM (active) | 0.419 µM (active) | 0.0524 µM (active) | 0.942 µM (active) | 0.0546 µM (active) |  | 0.00359 µM (active) | 0.01 µM (active) | 0.0263 µM (active) | 0.0608 µM (active) | 0.335 µM (active) | 0.158 µM (active) | 0.0577 µM (active) | 0.0791 µM (active) | 0.0385 µM (active) | 0.0506 µM (active) | 0.0863 µM (active) | 
Cn1c(-c2ccccc2)c2cc3nc4ccccc4nc3cc2c1-c1ccccc1 | 6.21 µM (inactive) | 17.5 µM (inactive) | 10.2 µM (inactive) | 17.7 µM (inactive) | 41 µM (inactive) | 17.7 µM (inactive) | 20.1 µM (inactive) | 5.87 µM (inactive) | 19.6 µM (inactive) | 17.4 µM (inactive) | 43.3 µM (inactive) |  | 20.4 µM (inactive) |  | 17.8 µM (inactive) | 23.2 µM (inactive) | 4.19 µM (inactive) | 17.3 µM (inactive) | 26.5 µM (inactive)
CCOP(=O)(OCC)/C(C#N)=C/c1cn(C)cn1 | > 100 µM (inactive) | > 100 µM (inactive) | > 100 µM (inactive) | > 100 µM (inactive) | > 100 µM (inactive) | > 100 µM (inactive) |  | > 100 µM (inactive) | > 100 µM (inactive) | > 100 µM (inactive) | > 100 µM (inactive) | > 100 µM (inactive) | > 100 µM (inactive) |  | > 100 µM (inactive) |  | > 100 µM (inactive) | > 100 µM (inactive) | > 100 µM (inactive)
NC(=O)c1cc2ccc(O)cc2o/c1=N/c1ccccc1 | 29.5 µM (inactive) | 26.5 µM (inactive) | 40.7 µM (inactive) | 24.9 µM (inactive) | 27.1 µM (inactive) | 17.2 µM (inactive) | 25.1 µM (inactive) | 22.5 µM (inactive) | 16.3 µM (inactive) |  | 19.3 µM (inactive) | 22.2 µM (inactive) | 35.2 µM (inactive) | 30.3 µM (inactive) | 33 µM (inactive) | 24.4 µM (inactive) | 25.9 µM (inactive) | 34.5 µM (inactive) | 13.5 µM (inactive)
O=C(N/S(=N/S(=O)(=O)c1ccc(Br)cc1)C(Cl)(Cl)Cl)c1ccccc1 (centres undefined) | > 100 µM (inactive) | > 100 µM (inactive) | > 100 µM (inactive) | > 100 µM (inactive) | > 100 µM (inactive) | > 100 µM (inactive) |  | > 100 µM (inactive) | > 100 µM (inactive) | > 100 µM (inactive) |  |  | > 100 µM (inactive) | > 100 µM (inactive) | > 100 µM (inactive) | > 100 µM (inactive) | > 100 µM (inactive) | > 100 µM (inactive) | 23.3 µM (inactive)
O=C(O)c1c[nH]c2c(Sc3ccccc3)nccc2c1=O | > 100 µM (inactive) | > 100 µM (inactive) | > 100 µM (inactive) | > 100 µM (inactive) | > 100 µM (inactive) | > 100 µM (inactive) | 78.7 µM (inactive) | > 100 µM (inactive) | > 100 µM (inactive) | > 100 µM (inactive) | > 100 µM (inactive) |  | > 100 µM (inactive) | > 100 µM (inactive) | > 100 µM (inactive) | > 100 µM (inactive) | > 100 µM (inactive) |  | > 100 µM (inactive)
COc1cc(OC)cc(-n2c(N)c(C#N)c3ccc([N+](=O)[O-])cc3c2=O)c1 |  |  |  | 28.3 µM (inactive) | 34.2 µM (inactive) | 41.2 µM (inactive) |  | 80 µM (inactive) | 20 µM (inactive) |  | 30.8 µM (inactive) | 84.1 µM (inactive) |  | 19 µM (inactive) | > 100 µM (inactive) | 93.5 µM (inactive) | 30.8 µM (inactive) | 22.6 µM (inactive) | 19.7 µM (inactive)
O=C1CSC(c2ccccc2O)N1c1ccc(-c2ccc(-n3c(-c4ccccc4)nc4ccccc4c3=O)cc2)cc1 (centres undefined) | 38.5 µM (inactive) | 15.3 µM (inactive) | 39.6 µM (inactive) |  | 16.1 µM (inactive) |  | 23.4 µM (inactive) | 35.5 µM (inactive) | 70 µM (inactive) | 32.1 µM (inactive) | 26.1 µM (inactive) |  | 34.8 µM (inactive) | 18.7 µM (inactive) | 13.3 µM (inactive) | 29.5 µM (inactive) | 35.7 µM (inactive) | 24.9 µM (inactive) | 24.9 µM (inactive)
CCn1nc(C)c2c1C(=O)NC(C)C(=O)N2 (centres undefined) | > 100 µM (inactive) | > 100 µM (inactive) |  | > 100 µM (inactive) | > 100 µM (inactive) |  |  | > 100 µM (inactive) | > 100 µM (inactive) | > 100 µM (inactive) | > 100 µM (inactive) |  | > 100 µM (inactive) |  | > 100 µM (inactive) | > 100 µM (inactive) | > 100 µM (inactive) |  | > 100 µM (inactive)
CC(Nc1cc(Cl)cc(Cl)c1)c1ccncc1 (centres undefined) | 17.6 µM (inactive) | 15.4 µM (inactive) | 15.8 µM (inactive) | 22.4 µM (inactive) | 41.8 µM (inactive) | > 10 µM (inactive) |  | 21.3 µM (inactive) | 23.3 µM (inactive) | 21.8 µM (inactive) | 17.2 µM (inactive) | 16.8 µM (inactive) | 16.6 µM (inactive) | 26.2 µM (inactive) | 27.7 µM (inactive) | 14.8 µM (inactive) | 16.9 µM (inactive) | 13.6 µM (inactive) | 23.3 µM (inactive)
Cc1cccc(NC(=S)NNC(=O)c2cc(-c3ccccc3)nc3ccccc23)c1 | 35 µM (inactive) | 33.6 µM (inactive) | 32 µM (inactive) | 36.1 µM (inactive) | 40.4 µM (inactive) | 21.8 µM (inactive) |  | 45.7 µM (inactive) | 20.2 µM (inactive) | 21.8 µM (inactive) | 32.7 µM (inactive) | 25.1 µM (inactive) | 26.8 µM (inactive) | 29.7 µM (inactive) | 34.7 µM (inactive) | 20.8 µM (inactive) | 30.9 µM (inactive) | 41.5 µM (inactive) | 36.6 µM (inactive)
COc1ccc(/N=N/C(=N\c2ccc(F)cc2)c2ccc(N(CCC#N)CCC#N)cc2)cc1 | 28.6 µM (inactive) | 19.9 µM (inactive) | 41.8 µM (inactive) | 82.8 µM (inactive) | 46.5 µM (inactive) |  |  | 29.9 µM (inactive) | 21.4 µM (inactive) | > 100 µM (inactive) | 81.8 µM (inactive) | 19.1 µM (inactive) | 30.9 µM (inactive) | 42.3 µM (inactive) | 39.5 µM (inactive) | 32.6 µM (inactive) | 20.2 µM (inactive) | 27.6 µM (inactive) | 24 µM (inactive)
CC(C)SC(=S)Sc1c(Cl)c(Cl)nc(Cl)c1Cl | 12.4 µM (inactive) | 7.33 µM (inactive) | 5.85 µM (inactive) | 6.98 µM (inactive) | 5.97 µM (inactive) | 7.82 µM (inactive) | 2.44 µM (inactive) | 5.27 µM (inactive) | 17.1 µM (inactive) | 10.9 µM (inactive) | 2.84 µM (inactive) | 3.31 µM (inactive) | 1.85 µM (inactive) | 2.33 µM (inactive) | 3.4 µM (inactive) | 10.5 µM (inactive) | 17.1 µM (inactive) | 2.97 µM (inactive) | 
COc1cc(C2S/C(=C/c3ccccc3)C(=O)N2c2ccc(NC(C)=O)cc2)cc(OC)c1OC (centres undefined) | 19.5 µM (inactive) |  | 30.4 µM (inactive) | 22.7 µM (inactive) | 37.2 µM (inactive) | 0.71 µM (active) |  | 19.3 µM (inactive) | 21.4 µM (inactive) |  | 18.8 µM (inactive) | 19.7 µM (inactive) |  |  | 13.2 µM (inactive) | 12.7 µM (inactive) |  | 16 µM (inactive) | 3.3 µM (inactive)
COC1C(OC(N)=O)C(O)C(Oc2ccc3c(O)c(NC(=O)c4ccc(O)c(CC=C(C)C)c4)c(=O)oc3c2C)OC1(C)C (centres undefined) | > 100 µM (inactive) | > 100 µM (inactive) | > 100 µM (inactive) | > 100 µM (inactive) | > 10 µM (inactive) | > 100 µM (inactive) |  | > 100 µM (inactive) | > 100 µM (inactive) | > 100 µM (inactive) | > 100 µM (inactive) | 47.5 µM (inactive) | > 100 µM (inactive) | > 100 µM (inactive) | > 100 µM (inactive) | > 100 µM (inactive) | 62.2 µM (inactive) | > 100 µM (inactive) | > 100 µM (inactive)
C[N+]1(C)[C@@H]2CC[C@H]1C[C@@H](OC(=O)C(CO)c1ccccc1)C2 (some centres undefined) [ATROPINE METHYLBROMIDE] | > 100 µM (inactive) | > 100 µM (inactive) | > 100 µM (inactive) | > 100 µM (inactive) | > 100 µM (inactive) | > 100 µM (inactive) |  | > 100 µM (inactive) | > 100 µM (inactive) | > 100 µM (inactive) | > 100 µM (inactive) |  | > 100 µM (inactive) | > 100 µM (inactive) | > 100 µM (inactive) | > 100 µM (inactive) |  | > 100 µM (inactive) | > 100 µM (inactive)
